ChEMBL document CHEMBL1201862, “PubChem BioAssay data set” (2004)
Activity calls are given as the source filed them.

Columns and labels:
A549 = assay: A549 cell toxicity, dose response, cytotoxicity control, plate reader, cherry-pick samples (AID 687028); type: functional, cell-based; settings: Homo sapiens
Protein RecA = biological target: T1, Protein RecA (Mycobacterium tuberculosis, UniProt P9WHJ3); assay: Fluorescence Cell-Free Homogeneous Dose Retest to Identify Inhibitors of RecA-Intein Splicing Activity. [Related pubchem assays (depositor defined):AID2097, AID2223, AID489010, AID492950]; type: functional
T1 sequence (P9WHJ3 whole entry): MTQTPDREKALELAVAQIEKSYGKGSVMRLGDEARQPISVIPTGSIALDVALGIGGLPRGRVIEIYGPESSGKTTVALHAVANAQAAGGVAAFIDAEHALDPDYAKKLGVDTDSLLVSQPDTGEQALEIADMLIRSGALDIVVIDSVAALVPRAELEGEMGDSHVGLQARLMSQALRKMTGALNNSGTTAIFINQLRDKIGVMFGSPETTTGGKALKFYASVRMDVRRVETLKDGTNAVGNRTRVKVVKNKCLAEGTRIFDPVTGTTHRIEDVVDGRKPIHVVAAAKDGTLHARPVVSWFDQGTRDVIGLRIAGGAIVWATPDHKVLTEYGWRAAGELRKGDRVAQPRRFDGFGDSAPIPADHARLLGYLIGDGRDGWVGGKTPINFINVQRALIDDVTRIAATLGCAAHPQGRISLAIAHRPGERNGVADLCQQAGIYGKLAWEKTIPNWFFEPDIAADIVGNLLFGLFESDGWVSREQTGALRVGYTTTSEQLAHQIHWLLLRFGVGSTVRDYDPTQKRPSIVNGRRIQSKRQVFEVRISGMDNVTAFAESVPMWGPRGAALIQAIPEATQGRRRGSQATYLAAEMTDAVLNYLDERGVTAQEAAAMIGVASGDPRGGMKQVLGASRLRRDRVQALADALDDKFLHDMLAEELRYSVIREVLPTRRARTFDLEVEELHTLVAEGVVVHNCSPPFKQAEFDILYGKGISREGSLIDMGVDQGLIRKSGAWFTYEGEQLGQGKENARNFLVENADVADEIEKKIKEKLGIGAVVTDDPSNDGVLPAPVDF

[1] = Counterscreen for activators of the function of SWI/SNF related, matrix associated, actin dependent regulator of chromatin, subfamily a, member 2 (SMARCA2, BRM): Luminescence-based cell-based high throughput dose response assay to identify non-selective compounds using the VP16 reporter assay.; type: functional
[2] = biological target: SWI/SNF-related matrix-associated actin-dependent regulator of chromatin subfamily A member 2 (Homo sapiens, UniProt P51531); assay: Luminescence-based cell-based high throughput dose response assay to identify activators of the function of SWI/SNF related, matrix associated, actin dependent regulator of chromatin, subfamily a, member 2 (SMARCA2, BRM).; type: functional
Sequence of SWI/SNF-related matrix-associated actin-dependent regulator of chromatin subfamily A member 2 (P51531 whole entry): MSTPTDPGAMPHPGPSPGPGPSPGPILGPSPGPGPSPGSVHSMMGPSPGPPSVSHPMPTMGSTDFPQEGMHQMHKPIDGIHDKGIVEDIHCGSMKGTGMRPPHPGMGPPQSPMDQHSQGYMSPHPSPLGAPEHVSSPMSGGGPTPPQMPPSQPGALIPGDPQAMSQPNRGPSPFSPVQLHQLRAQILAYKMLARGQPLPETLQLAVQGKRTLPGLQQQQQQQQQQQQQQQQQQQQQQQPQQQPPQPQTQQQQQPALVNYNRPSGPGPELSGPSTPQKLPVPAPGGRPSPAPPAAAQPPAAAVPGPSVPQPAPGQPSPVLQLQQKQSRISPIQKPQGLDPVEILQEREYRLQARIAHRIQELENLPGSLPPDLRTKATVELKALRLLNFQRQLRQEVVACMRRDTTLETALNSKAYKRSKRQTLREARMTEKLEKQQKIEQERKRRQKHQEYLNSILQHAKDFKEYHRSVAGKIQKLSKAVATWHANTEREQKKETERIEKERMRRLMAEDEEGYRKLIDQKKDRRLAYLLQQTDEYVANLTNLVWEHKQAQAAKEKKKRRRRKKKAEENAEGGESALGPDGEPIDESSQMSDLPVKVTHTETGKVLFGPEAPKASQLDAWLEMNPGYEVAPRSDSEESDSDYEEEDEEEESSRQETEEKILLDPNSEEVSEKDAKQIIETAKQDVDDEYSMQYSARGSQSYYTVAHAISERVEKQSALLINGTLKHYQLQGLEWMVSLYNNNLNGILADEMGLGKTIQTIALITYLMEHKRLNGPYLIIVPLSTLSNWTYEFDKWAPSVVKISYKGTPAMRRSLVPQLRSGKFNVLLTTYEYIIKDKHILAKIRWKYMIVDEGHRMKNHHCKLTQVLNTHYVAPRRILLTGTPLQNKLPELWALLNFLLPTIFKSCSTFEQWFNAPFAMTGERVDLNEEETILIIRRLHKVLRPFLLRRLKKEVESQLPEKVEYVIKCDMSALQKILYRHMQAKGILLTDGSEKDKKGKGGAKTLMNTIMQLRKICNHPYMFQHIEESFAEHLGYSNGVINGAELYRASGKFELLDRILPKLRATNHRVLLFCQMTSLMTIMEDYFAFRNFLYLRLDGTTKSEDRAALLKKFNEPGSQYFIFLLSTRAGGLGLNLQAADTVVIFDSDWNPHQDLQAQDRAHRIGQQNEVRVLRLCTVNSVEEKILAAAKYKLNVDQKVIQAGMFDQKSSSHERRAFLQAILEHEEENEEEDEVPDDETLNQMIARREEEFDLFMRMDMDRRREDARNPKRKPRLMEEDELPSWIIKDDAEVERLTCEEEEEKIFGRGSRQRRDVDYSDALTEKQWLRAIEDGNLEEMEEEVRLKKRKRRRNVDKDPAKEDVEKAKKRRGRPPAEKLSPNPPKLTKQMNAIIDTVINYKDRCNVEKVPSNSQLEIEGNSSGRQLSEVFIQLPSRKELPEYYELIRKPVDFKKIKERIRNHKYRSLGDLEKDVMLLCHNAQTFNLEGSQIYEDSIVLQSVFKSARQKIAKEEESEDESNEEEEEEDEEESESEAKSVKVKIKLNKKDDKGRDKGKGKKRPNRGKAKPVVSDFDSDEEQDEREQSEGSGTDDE

[3] = inhibitors of PGC1a acetylation in cells, dose response, cell-based, cherry-picked samples (AID 720514); type: functional;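 further: potency may reflect raised or lowered acetylation signal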
[4] = biological target: T2, Replicative DNA helicase DnaB (Mycobacterium tuberculosis, UniProt P9WMR3); assay: DnaB intein splicing inhibitors, dose response, biochemical, cell-free fluorescence (AID 449749); type: functional
T2 sequence (P9WMR3 whole entry): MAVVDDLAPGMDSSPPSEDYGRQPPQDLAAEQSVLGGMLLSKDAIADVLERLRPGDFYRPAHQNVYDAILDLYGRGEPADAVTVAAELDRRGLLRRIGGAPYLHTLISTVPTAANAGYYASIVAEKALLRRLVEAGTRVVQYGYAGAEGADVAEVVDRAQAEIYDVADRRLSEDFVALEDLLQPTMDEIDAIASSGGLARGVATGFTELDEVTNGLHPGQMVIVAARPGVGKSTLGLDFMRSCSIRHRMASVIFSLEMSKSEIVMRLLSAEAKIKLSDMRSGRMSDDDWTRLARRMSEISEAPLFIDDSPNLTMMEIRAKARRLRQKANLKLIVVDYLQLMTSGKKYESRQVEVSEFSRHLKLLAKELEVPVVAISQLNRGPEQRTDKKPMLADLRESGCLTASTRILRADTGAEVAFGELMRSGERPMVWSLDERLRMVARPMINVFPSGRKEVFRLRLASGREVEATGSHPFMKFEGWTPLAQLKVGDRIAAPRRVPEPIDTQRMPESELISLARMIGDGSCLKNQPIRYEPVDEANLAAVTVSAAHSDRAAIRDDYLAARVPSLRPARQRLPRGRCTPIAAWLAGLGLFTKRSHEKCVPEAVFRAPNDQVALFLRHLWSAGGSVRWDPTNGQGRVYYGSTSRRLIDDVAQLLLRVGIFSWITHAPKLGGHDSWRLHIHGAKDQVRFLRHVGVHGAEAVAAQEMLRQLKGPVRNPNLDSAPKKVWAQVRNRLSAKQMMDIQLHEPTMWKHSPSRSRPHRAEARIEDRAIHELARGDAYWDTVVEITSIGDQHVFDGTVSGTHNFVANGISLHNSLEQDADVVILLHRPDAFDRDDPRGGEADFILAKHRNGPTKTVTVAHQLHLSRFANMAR

fMet-Leu-Phe receptor = fMet-Leu-Phe receptor (Homo sapiens, UniProt P21462); assay: FPR ligands, dose response (AID 519); type: functional
[5] = biological target: Endoplasmic reticulum aminopeptidase 1 (Homo sapiens, UniProt Q9NZ08); assay: ERAP1 aminopeptidase inhibitors, dose response, biochemical, cherry-pick, set 2, plate reader (AID 743314)
Sequence of Endoplasmic reticulum aminopeptidase 1 (Q9NZ08 whole entry): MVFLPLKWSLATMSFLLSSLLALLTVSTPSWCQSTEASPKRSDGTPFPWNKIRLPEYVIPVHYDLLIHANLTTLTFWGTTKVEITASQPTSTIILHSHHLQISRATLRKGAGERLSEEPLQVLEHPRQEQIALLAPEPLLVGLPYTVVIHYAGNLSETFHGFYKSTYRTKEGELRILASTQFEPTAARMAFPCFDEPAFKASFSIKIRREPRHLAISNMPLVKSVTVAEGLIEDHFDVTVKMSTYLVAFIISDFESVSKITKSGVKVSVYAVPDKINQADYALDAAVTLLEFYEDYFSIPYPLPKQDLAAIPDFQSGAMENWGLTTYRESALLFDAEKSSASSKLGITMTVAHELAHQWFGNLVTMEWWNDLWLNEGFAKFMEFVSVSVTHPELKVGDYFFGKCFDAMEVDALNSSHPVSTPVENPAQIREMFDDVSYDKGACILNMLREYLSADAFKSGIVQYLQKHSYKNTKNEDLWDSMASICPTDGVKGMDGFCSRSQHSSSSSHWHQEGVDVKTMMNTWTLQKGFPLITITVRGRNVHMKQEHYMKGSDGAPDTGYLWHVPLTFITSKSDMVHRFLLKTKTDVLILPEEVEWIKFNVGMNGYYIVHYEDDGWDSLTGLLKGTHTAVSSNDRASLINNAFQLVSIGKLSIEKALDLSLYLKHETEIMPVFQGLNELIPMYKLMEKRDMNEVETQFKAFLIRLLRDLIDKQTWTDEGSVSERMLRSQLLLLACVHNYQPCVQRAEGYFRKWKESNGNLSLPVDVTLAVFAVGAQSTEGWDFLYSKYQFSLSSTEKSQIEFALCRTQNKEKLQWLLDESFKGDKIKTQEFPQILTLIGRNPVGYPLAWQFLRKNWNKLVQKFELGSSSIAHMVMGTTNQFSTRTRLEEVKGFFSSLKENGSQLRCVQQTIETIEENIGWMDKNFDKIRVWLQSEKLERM

[6] = CEM21 cell cytotoxicity, dose response, cytotoxicity control, plate reader, dry powder (AID 687026); type: functional, cell-based
NS3 = NS3 (Hepatitis C virus, UniProt A3EZJ3); assay: HCV NS3 helicase inhibitor potency, dose response, biochemical, fluorescence polarization, ChemBridge library (AID 743264)
Sequence of NS3 (A3EZJ3 whole entry): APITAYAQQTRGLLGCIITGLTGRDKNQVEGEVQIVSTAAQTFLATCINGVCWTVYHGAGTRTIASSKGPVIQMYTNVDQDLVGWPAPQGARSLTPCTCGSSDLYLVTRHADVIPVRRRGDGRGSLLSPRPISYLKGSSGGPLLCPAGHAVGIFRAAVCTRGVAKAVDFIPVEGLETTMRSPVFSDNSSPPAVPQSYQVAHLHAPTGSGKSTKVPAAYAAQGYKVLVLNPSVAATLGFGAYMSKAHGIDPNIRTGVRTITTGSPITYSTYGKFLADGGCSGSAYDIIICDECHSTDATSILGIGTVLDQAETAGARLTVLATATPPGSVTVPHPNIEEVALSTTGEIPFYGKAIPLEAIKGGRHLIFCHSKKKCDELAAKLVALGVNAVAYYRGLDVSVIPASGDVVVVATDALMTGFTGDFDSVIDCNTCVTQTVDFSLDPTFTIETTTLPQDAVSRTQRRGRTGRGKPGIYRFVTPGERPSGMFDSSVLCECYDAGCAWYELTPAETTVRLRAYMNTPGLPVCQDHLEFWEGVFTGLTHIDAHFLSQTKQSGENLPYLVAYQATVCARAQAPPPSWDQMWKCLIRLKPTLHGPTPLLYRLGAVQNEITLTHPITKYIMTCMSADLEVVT

Galanin receptor type 3 = Galanin receptor type 3 (Homo sapiens, UniProt O60755); assay: Fluorescence-based cell-based primary high throughput dose response assay to identify antagonists of the Galanin Receptor 3 (GalR3).; type: functional
Sequence of Galanin receptor type 3 (O60755 whole entry): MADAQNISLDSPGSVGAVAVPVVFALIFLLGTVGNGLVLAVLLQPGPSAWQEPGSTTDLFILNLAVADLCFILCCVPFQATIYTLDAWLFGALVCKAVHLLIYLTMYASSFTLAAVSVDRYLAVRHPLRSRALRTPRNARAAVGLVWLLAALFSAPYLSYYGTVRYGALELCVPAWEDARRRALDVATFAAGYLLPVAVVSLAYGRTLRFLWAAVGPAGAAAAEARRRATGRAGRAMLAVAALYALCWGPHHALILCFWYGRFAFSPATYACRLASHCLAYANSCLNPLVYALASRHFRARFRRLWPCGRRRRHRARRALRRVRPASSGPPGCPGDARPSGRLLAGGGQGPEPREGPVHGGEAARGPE

cells = type: functional, cell-based; settings: HEK-CNG
[7] = Shn3 3'UTR reporter inhibitors, dose response, cell-based, Clone20 osteoblasts, firefly luciferase, cherry-picked (AID 624132); type: functional;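 further: firefly luciferase luminescence from reporter carrying the Shn3 3'UTR in osteoblasts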
[8] = control 3'UTR Renilla luciferase suppression, dose response, counter-screen for Shn3 inhibitor project, cell-based, Clone20-Shn3RL, cherry-picked (AID 624133); type: functional
[9] = biological target: T3, Ubiquitin-conjugating enzyme E2 N (Homo sapiens, UniProt P61088); type: functional
T3 sequence (P61088 whole entry): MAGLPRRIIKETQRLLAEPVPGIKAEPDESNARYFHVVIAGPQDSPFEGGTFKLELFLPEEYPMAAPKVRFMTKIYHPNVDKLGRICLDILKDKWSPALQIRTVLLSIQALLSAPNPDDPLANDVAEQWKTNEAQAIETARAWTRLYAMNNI

Beta Lactamase = Beta Lactamase (Pseudomonas aeruginosa, UniProt Q932Y6); assay: beta-lactamase reporter inhibitor potency, dose response, artefact control for TLR9-MyD88 binding inhibitor project, BLA reporter cells, FRET fluorescence (AID 588341); type: cell-based;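 further: cell based assay in CHO-K1 cells stably expressing beta-lactamase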
Sequence of Beta Lactamase (Q932Y6 whole entry): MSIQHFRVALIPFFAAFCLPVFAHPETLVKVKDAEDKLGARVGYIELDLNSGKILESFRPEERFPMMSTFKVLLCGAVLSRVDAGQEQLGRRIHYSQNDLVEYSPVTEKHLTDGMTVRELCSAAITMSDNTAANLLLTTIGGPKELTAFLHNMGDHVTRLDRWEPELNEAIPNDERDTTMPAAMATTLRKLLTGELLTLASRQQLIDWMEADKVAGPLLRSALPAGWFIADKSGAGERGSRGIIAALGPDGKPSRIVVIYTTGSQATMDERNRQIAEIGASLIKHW

[10] = Luminescence Cell-Based Dose Retest to Confirm Inhibitors of Cancer Stem Cells. [Related pubchem assays (depositor defined):AID2717, AID2721]; type: functional; settings: Homo sapiens
[11] = biological target: ATP-binding cassette sub-family B member 6 (Homo sapiens, UniProt Q9NP58); assay: ABCB6 transporter inhibitors, porphyrin accumulation, dose response, flow cytometry, K562-ABCB6 cells, cherry pick 02 (AID 624487); type: functional; settings: read-out: EC50_MICROM
[12] = HepG2 cell cytotoxicity, dose response, cytotoxicity control for Shn3 inhibitor project, CellTiter-Glo, cherry-picked (AID 624134); type: functional, cell-based
[13] = biological target: T3, Ubiquitin-conjugating enzyme E2 N; type: functional; remark: listed apart in the source
CHO = assay: cytotoxicity in TLR9-MyD88 CHO cells, dose response, cytotoxicity control for TLR9-MyD88 binding inhibitor project, cell-based, luminescence (AID 588339); type: functional, hamster; settings: Cricetulus griseus;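 further: CHO cells stably coexpressing TLR9 and MyD88 fusions from primary screen; compound exposure lasted 48 hours before viability readout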
Bcl-2-related protein A1 = biological target: T4, Bcl-2-related protein A1 (Mus musculus, UniProt Q07440); type: functional;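 further: confirmatory dose–response counterscreen on Bfl-1, used to check hits from a UBC13 polyubiquitin inhibitor campaign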
T4 sequence (Q07440 whole entry): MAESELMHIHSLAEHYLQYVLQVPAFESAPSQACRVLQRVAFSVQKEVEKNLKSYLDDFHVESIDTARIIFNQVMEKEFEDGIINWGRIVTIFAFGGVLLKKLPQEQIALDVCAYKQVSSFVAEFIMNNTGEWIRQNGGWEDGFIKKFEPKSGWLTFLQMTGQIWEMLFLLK

Fatty acid synthase = Fatty acid synthase (Homo sapiens, UniProt P49327); assay: FAS thioesterase domain inhibitors, SAR follow-up, biochemical, endpoint fluorescence intensity, powder samples (AID 652164); type: functional
[14] = YAP1 pathway inhibition via CTGF transcript levels, dose response, cell-based, DLD1 colon cancer, RT-qPCR, cherry-pick (AID 1053122); type: functional; settings: Cancer cell lines
[15] = cytotoxicity in HeLa cells, dose response, cytotoxicity control, cell-based, plate reader, dry powder (AID 651946); type: functional
[16] = biological target: Kappa-type opioid receptor (Homo sapiens, UniProt P41145); assay: OPRK1 antagonists, late-stage follow-up, cell-based, fluorescence, dose response (AID 652032); type: functional
[17] = biological target: Induced myeloid leukemia cell differentiation protein Mcl-1 (Homo sapiens, UniProt Q07820); type: functional
Sequence of Induced myeloid leukemia cell differentiation protein Mcl-1 (Q07820 whole entry, the tested form may be a part): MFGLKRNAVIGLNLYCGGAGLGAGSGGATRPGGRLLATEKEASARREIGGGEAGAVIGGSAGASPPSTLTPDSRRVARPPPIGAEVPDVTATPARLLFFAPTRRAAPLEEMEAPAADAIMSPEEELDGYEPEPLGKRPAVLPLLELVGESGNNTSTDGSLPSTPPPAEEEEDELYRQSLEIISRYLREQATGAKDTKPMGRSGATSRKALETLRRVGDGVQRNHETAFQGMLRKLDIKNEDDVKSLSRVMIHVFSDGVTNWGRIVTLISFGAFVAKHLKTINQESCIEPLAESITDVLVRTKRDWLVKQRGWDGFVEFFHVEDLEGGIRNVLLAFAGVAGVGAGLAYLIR

[18] = biological target: Disintegrin and metalloproteinase domain-containing protein 17 (Homo sapiens, UniProt P78536); assay: exosite inhibitors of ADAM17, dose response, biochemical (AID 743260)
Sequence of Disintegrin and metalloproteinase domain-containing protein 17 (P78536 whole entry, the tested form may be a part): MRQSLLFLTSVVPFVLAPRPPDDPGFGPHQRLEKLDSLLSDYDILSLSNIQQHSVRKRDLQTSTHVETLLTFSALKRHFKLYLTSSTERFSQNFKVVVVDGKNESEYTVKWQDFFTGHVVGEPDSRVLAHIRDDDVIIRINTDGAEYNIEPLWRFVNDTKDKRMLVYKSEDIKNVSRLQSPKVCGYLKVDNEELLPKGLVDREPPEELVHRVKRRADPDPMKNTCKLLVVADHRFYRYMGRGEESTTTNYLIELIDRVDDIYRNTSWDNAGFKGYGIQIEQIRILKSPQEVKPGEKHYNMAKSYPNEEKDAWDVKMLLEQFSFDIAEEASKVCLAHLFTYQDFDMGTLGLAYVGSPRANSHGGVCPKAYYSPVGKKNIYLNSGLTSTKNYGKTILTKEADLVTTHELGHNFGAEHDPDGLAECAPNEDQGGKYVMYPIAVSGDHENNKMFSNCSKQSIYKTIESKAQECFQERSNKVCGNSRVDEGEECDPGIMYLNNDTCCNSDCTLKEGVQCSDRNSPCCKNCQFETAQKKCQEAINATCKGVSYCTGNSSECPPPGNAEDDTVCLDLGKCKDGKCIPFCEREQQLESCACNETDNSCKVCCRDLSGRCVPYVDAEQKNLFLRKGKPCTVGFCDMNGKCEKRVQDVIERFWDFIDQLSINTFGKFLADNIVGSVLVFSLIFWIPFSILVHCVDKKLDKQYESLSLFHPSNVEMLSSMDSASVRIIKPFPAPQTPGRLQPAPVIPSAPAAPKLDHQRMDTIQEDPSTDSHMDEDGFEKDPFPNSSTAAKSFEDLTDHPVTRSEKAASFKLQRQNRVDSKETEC

[19] = ADAM10 protease inhibitors, dose response, selectivity assay for ADAM17 exosite inhibitor project, biochemical, FRET peptide substrate, recombinant human ADAM10 (AID 743259);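 further: ADAM10 enzyme cleaving a FRET peptide substrate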
Albumin = Albumin (Bos taurus, UniProt P02769); assay: Counterscreen for inhibitors of T-cell receptor (TCR)-CD3 interaction: Fluorescence-based biochemical high throughput dose response assay to identify inhibitors of T-cell receptor (TCR)-CD3 interaction using a TAMRA-labeled BSA probe.; type: functional
[20] = biological target: T5, Calpain-2 catalytic subunit (Sus scrofa, UniProt P43367); assay: pig calpain II inhibitor potency, dose response, biochemical, fluorogenic peptide substrate (AID 1420); type: functional
T5 sequence (P43367 whole entry): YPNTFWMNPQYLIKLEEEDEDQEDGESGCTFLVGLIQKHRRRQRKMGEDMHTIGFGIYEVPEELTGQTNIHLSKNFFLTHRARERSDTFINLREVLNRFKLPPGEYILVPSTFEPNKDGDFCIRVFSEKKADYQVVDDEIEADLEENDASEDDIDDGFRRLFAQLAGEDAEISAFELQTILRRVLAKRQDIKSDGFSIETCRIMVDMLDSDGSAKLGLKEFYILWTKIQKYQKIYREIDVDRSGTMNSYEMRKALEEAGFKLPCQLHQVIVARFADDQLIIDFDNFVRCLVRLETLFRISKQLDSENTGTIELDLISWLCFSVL

HeLa = assay: HeLa cell cytotoxicity, dose response, cytotoxicity control, ATP luminescence, cherry-pick samples (AID 687004); type: functional, cell-based; settings: Homo sapiens

C[C@@H]1CCCCO[C@@H](CN(C)C(=O)Cc2ccccc2)[C@H](C)CN([C@H](C)CO)C(=O)c2cc(NS(=O)(=O)c3ccc(Cl)cc3)ccc2O1
AC50 (A549): 31.2 µM (active)

Cc1cc(C)cc(OC(=O)C[S+]([O-])c2ccc(C(F)(F)F)cc2[N+](=O)[O-])c1 (centres undefined)
EC50 (Protein RecA): 1.3 µM (active) | EC50 [1]: > 91.2 µM (inactive) | EC50 [2]: > 91.2 µM (inactive) | AC50 [3]: 10.3 µM (active) | AC50 [4]: 4.03 µM (active)

CCCc1nc2ccccc2c2nc(N)nn12
Ki (fMet-Leu-Phe receptor): > 66.7 µM (inactive)

O=c1ccc2cc(O[C@@H]3O[C@@H](CO)[C@H](O)[C@@H](O)[C@@H]3O)c(O)cc2o1
AC50 [5]: 2.37 µM (active)

Cc1ccc(C)n1-c1ccc(C(=O)O)c(O)c1
AC50 [6]: > 70 µM (inactive) | IC50 (NS3): 1.85 µM (inactive)

CC(CC(=O)Nc1ccc(Cl)c(S(=O)(=O)N2CCOCC2)c1)c1ccccc1 (centres undefined)
IC50 (Galanin receptor type 3): 1.21 µM (active) | EC50 (cells): > 29.9 µM (inactive)

CC(=O)Nc1ccc(NC(=O)c2nc(S(=O)(=O)Cc3cccc(C)c3)ncc2Cl)cc1
EC50 (Protein RecA): 5.24 µM (active) | AC50 [7]: 0.528 µM (active) | AC50 [8]: 6.53 µM (active) | IC50 [9]: > 20 µM (inactive) | IC50 (Beta Lactamase): 9.43 µM (active) | AC50 [10]: 2.47 µM (active) | EC50 [11]: 17.8 µM (active) | AC50 [12]: 66.6 µM (active) | IC50 [13]: 13 µM (active) | AC50 [4]: 7.54 µM (active) | IC50 (CHO): 3.54 µM (active) | IC50 (Bcl-2-related protein A1): > 20 µM (inactive)

CC(=O)Nc1nc(-c2ccc(S(=O)(=O)N3CCOCC3)cc2)cs1
IC50 (Fatty acid synthase): 11.4 µM (active)

C[C@@H]1C/C=C/C[C@@H](c2cccc(Cl)c2)NC(=O)[C@H](Cc2ccccc2)N(C)C(=O)c2ccccc2O1.C[C@@H]1C/C=C\C[C@@H](c2cccc(Cl)c2)NC(=O)[C@H](Cc2ccccc2)N(C)C(=O)c2ccccc2O1
AC50 [14]: 0.492 µM (active)

[O-][S+](Cc1cn(-c2ccccc2)nn1)c1nnc(-c2ccc(Cl)cc2)o1 (centres undefined)
AC50 [15]: 15.6 µM (active)

COC(=O)c1cc(Br)cnc1N1CCCC(NC2CCCCC2)C1 (centres undefined)
IC50 [16]: 11.7 µM (inactive)

CN(C)c1ccc(NC(=O)c2ccc(COc3cccc(Cl)c3)o2)cc1
IC50 [17]: 23.4 µM (active) | IC50 [18]: > 69.5 µM (inactive) | IC50 [19]: 8.25 µM (active)

CCc1ccc(NC(=O)NNC(=O)c2ccc3ccccc3c2O)cc1
IC50 (Albumin): > 94.1 µM (inactive)

CC(C)c1ccccc1N=C(S)NN(Cc1ccccc1)c1ccccc1
IC50 [20]: < 0.4 µM (not active) | AC50 (HeLa): > 52 µM (inactive)
